Data published in patent US9790169B2, “IDO inhibitors” (BRISTOL-MYERS SQUIBB COMPANY, priority 2015, dated 2017).

The compounds below were run against human IDO1 (Homo sapiens, UniProt P14902) (assay: Assessment of human IDO-1 inhibitory activity in HEK cells (human IDO1/HEK293 cells, kynurenine read-out with Ehrlich reagent, absorbance 490 nm)). Settings: HEK Human IDO-1 cellular assay.
Sequence of human IDO1 (P14902 whole entry): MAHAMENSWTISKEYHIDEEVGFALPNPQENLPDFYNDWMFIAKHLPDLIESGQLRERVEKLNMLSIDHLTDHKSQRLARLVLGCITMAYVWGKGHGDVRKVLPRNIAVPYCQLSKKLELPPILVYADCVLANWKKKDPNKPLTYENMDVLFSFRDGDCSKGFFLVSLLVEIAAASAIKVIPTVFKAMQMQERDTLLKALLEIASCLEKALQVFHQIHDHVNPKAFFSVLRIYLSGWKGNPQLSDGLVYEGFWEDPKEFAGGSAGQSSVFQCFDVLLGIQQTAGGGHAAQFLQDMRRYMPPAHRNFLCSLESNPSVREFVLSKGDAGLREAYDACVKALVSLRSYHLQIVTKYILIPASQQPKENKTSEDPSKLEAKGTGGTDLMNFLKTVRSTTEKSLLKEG
Type: cell-based
Set-up: expressed in transfected cells
How it was run: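 HEK293 cells stably expressing human IDO1 were seeded at 10,000 per well in phenol red-free RPMI with 10% FBS, treated with compound for 20 h at 37 °C. Kynurenine was measured after TCA (0.2% final) and 30 min at 50 °C, using Ehrlich reagent, A490. IC50 normalised to DMSO (0%) and 500 nM reference standard (100%).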
Compound `CCC(CC(=O)O)c1cc(F)c(N(CC(C)C)CC(C)C)c(NC(=O)Cc2ccc(F)cc2F)c1` (single isomer, unassigned) [Example 1093 E1] has an IC50 of under 5 nM.
With `CCOc1ncc(Nc2cc(C(C)(C)CC(=O)O)ccc2N(CC(C)C)CC(C)C)cn1` [Example 148, 3-(4-(diisobutylamino)-3-((2-ethoxypyrimidin-5-yl)amino)phenyl)-3-methyl butanoic acid] the IC50 was under 50 nM.
`Cc1ccc(NC(=O)Nc2cc(C(C)CC(=O)O)c(F)cc2N(CC(C)C)C2CCCCC2)cc1` (racemic) [Example 955, (+/−)-3-(4-(Cyclohexyl(isobutyl)amino)-2-fluoro-5-(3-(p-tolyl)ureido)phenyl)butanoic acid] showed an IC50 of under 5 nM.
In the case of `CCC(CC(=O)O)c1ccc(N2C[C@@H]3C[C@H]2CN3C(=O)OC(C)(C)C)c(Nc2ccc(C)cc2)c1` (single isomer, unassigned) [Example 445], the IC50 is reported as under 5 nM.
`CCN(c1ccc(C(C)CC(=O)O)cc1NC(=O)Nc1ccc(C)cc1)C1CCOCC1` (single isomer, unassigned) [Example 639, 3-(4-(ethyl(tetrahydro-2H-pyran-4-yl)amino)-3-(3-(p-tolyl)ureido)phenyl)butanoic acid] was tested, and the IC50 was under 50 nM.
`CCc1cnc(Nc2cc([C@H](CC)CC(=O)O)ccc2N(CC)C2CCCCC2)nc1` (single isomer, unassigned) [Example 286] gave an IC50 of over 50 nM.
Work on `CC[C@@H](CC(=O)O)c1ccc(N(CC)C2CCOCC2)c(Nc2ccc(OCC(F)(F)F)cc2)c1` (single isomer, unassigned) [Example 475] yielded an IC50 of under 5 nM.
`CC(CC(=O)O)c1ccc(N2CCC[C@H]2C(C)(C)O)c(Nc2ccc(Cl)cc2)c1` (single isomer, unassigned) [Example 804] showed an IC50 of under 50 nM.
For `CC(CC(=O)O)c1ccc(N2CCC[C@H]2C(C)(C)O)c(Nc2ccc(C#N)cc2)c1` (single isomer, unassigned) [Example 797], the IC50 was over 50 nM.
In the case of `CCN(c1ccc(C(C)(C)CC(=O)O)cc1Nc1ccc2nc(C)sc2c1)C1CCOCC1` [Example 164, 3-(4-(ethyl(tetrahydro-2H-pyran-4-yl)amino)-3-((2-methylbenzo[d]thiazol-6-yl)amino)phenyl)-3-methylbutanoic acid], the IC50 is reported as under 50 nM.
For `COCC(CC(=O)O)c1ccc(N(CC(C)C)C2CCCCC2)c(NC(=O)Cc2ccc(C)cc2)c1` (single isomer, unassigned) [Example 1237, 3-(4-(Cyclohexyl(isobutyl)amino)-3-(2-(p-tolyl)acetamido)phenyl)-4-methoxybutanoic acid], the IC50 was under 50 nM.
For `CCC(CC(=O)O)c1ccc(N2CCC[C@@H]2C(C)(C)O)c(Nc2ccc(Cl)cc2)c1` (single isomer, unassigned) [Example 773], the IC50 was under 50 nM.
Compound `CC[C@H](CC(=O)O)c1ccc(N2CCOC[C@@H]2C(C)C)c(NC(=O)Nc2cc(C)on2)c1` (single isomer, unassigned) [Example 88] has an IC50 of over 50 nM.
In the case of `CC(C)CN(c1ccc(C(C)CC(=O)O)cc1Nc1nc2ccccc2o1)C1CCOCC1` (single isomer, unassigned) [Example 969, 3-(3-(Benzo[d]oxazol-2-ylamino)-4-(isobutyl(tetrahydro-2H-pyran-4-yl)amino)phenyl)butanoic acid], the IC50 is reported as over 50 nM.
Compound `CCOc1ncc(Nc2cc(C(CC)CC(=O)O)ccc2N2CCOC[C@H]2C(C)C)cn1` (single isomer, unassigned) [Example 891] has an IC50 of over 50 nM.
With `CCN(c1ccc(C(C)(C)CC(=O)O)cc1Nc1cnc(OC)nc1)C1CCOCC1` [Example 162, 3-(4-(ethyl(tetrahydro-2H-pyran-4-yl)amino)-3-((2-methoxypyrimidin-5-yl)amino)phenyl)-3-methylbutanoic acid] the IC50 was under 50 nM.
With `CC(C)(CC(=O)O)c1ccc(N2CCC[C@H]2C(C)(C)O)c(Nc2ccc(Cl)cc2)c1` [Example 808, (S)-3-(3-((4-chlorophenyl)amino)-4-(2-(2-hydroxypropan-2-yl)pyrrolidin-1-yl)phenyl)-3-methylbutanoic acid] the IC50 was under 50 nM.
`CC[C@H](CC(=O)O)c1ccc(N2CCC[C@H]2C(C)(C)F)c(NC(=O)Nc2ccc(Cl)cc2F)c1` (single isomer, unassigned) [Example 791] was tested, and the IC50 was under 50 nM.
With `CCc1ccc(Nc2cc([C@H](CC)CC(=O)O)ccc2N2CCOC[C@@H]2C(C)C)cc1` (single isomer, unassigned) [Example 91] the IC50 was under 50 nM.
Work on `CC[C@@H](CC(=O)O)c1ccc(N(CC(C)(C)O)C2CCOCC2)c(Nc2ccc(Cl)cc2)c1` (single isomer, unassigned) [Example 198] yielded an IC50 of under 5 nM.
`CCN(c1ccc(C(CC(=O)O)c2ccccc2)cc1NC(=O)Nc1cc(C)on1)C1CCOCC1` (single isomer, unassigned) [Example 587, 3-(4-(ethyl(tetrahydro-2H-pyran-4-yl)amino)-3-(3-(5-methylisoxazol-3-yl)ureido)phenyl)-3-phenylpropanoic acid] showed an IC50 of over 50 nM.
`CCC(CC(=O)O)c1ccc(N2CCC[C@H]2C(C)(C)O)c(Nc2cnc(OCC3CC3)nc2)c1` (single isomer, unassigned) [Example 822] gave an IC50 of over 50 nM.
For `CCC(CC(=O)O)c1ccc(N(CC2CC2)C(C)C)c(Nc2ccc3c(c2)OC(F)(F)O3)c1` (single isomer, unassigned) [Example 715, 3-(4-((cyclopropylmethyl) (isopropyl)amino)-3-((2,2-difluorobenzo[d][1,3]dioxol-5-yl)amino)phenyl) pentanoic acid], the IC50 was under 50 nM.
Compound `CC[C@H](CC(=O)O)c1ccc(N2C[C@@H](C)O[C@@H](C)C2)c(NC(=O)Nc2ccc(C)cc2)c1` (single isomer, unassigned) [Example 760] has an IC50 of over 50 nM.
Work on `CCC(CC(=O)O)c1ccc(N2CCOC[C@H]2C(C)C)c(NC(=O)Nc2ccc(Cl)cc2F)c1` (single isomer, unassigned) [Example 896] yielded an IC50 of under 50 nM.
`CCC(CC(=O)O)c1ccc(N(CC(C)C)C2CCCCC2)c(NC(=O)Cc2cc(F)ccc2F)c1` (single isomer, unassigned) [Example 1098 E2] showed an IC50 of under 5 nM.
`CC(C)(CC(=O)O)c1ccc(N2CCC[C@H]2C(C)(C)O)c(Nc2ccc(F)cc2)c1` [Example 807, (S)-3-(3-((4-Fluorophenyl)amino)-4-(2-(2-hydroxypropan-2-yl)pyrrolidin-1-yl)phenyl)-3-methylbutanoic acid] showed an IC50 of over 50 nM.
Compound `CCC(CC(=O)O)c1ccc(N2CCC[C@H]2C(C)(C)F)c(Nc2ccc3nc(C)sc3c2)c1` (single isomer, unassigned) [Example 794] has an IC50 of under 50 nM.
`CCC(CC(=O)O)c1ccc(N(CC(C)C)C2CCCCC2)c(Nc2ccc3c(c2)OC(F)(F)O3)c1` (single isomer, unassigned) [Example 315, 3-(4-(Cyclohexyl(isobutyl)amino)-3-((2,2-difluorobenzo[d][1,3]dioxol-5-yl)amino)phenyl)pentanoic acid] was tested, and the IC50 was over 50 nM.
`CCC(CC(=O)O)c1ccc(N(CC2CC2)C(C)C)c(Nc2ccc(Cl)cc2)c1` (single isomer, unassigned) [Example 714, 3-(3-((4-chlorophenyl)amino)-4-((cyclopropylmethyl) (isopropyl)amino)phenyl) pentanoic acid] gave an IC50 of under 5 nM.
`CC(C)CN(CC(C)C)c1ccc(C(CC(=O)O)CN(C)C)cc1NC(=O)Nc1ccc(Cl)cc1F` (racemic) [Example 1000, (+/−)-3-(3-(3-(4-Chloro-2-fluorophenyl)ureido)-4-(diisobutylamino)phenyl)-4-(dimethylamino)butanoic acid] gave an IC50 of over 50 nM.
`CCc1cnc(Nc2cc(C(CC)CC(=O)O)ccc2N(CC(C)C)C2CCCCC2)nc1` (single isomer, unassigned) [Example 302, 3-(4-(cyclohexyl(isobutyl)amino)-3-((5-ethylpyrimidin-2-yl)amino)phenyl)pentanoic acid] showed an IC50 of under 5 nM.
Compound `CCC(CC(=O)O)c1ccc(N(CC(C)C)C2CCCCC2)c(Nc2ccc(C)cc2)c1` (single isomer, unassigned) [Example 304, 3-(4-(cyclohexyl(isobutyl)amino)-3-(p-tolylamino)phenyl)pentanoic acid] has an IC50 of under 5 nM.
In the case of `CCc1ccc(Nc2cc(C(CC)CC(=O)O)ccc2N2CCC[C@H]2C(C)(C)O)cc1` (single isomer, unassigned) [Example 819], the IC50 is reported as over 50 nM.
In the case of `C[C@@H]1CN(c2ccc(C(C)(C)CC(=O)O)cc2Nc2ccc(F)cc2)C[C@H](C)O1` [Example 732, 3-(4-((2S,6R)-2,6-dimethylmorpholino)-3-((4-fluorophenyl)amino)phenyl)-3-methylbutanoic acid], the IC50 is reported as under 50 nM.
`Cc1ccc(CC(=O)Nc2cc(C(CC(=O)O)C(C)C)ccc2N(C)C(C)(C)C)cc1` (single isomer, unassigned) [1007-1] was tested, and the IC50 was over 50 nM.
`CCN(c1ccc([C@H](COC)CC(=O)O)cc1NC(=O)Nc1cc(C)on1)C1CCOCC1` (single isomer, unassigned) [Example 439] showed an IC50 of over 50 nM.
For `CCOc1ccc(NC(=O)Nc2cc(C(C)CC(=O)O)ccc2N(CC(C)C)C2CCOCC2)cc1` (single isomer, unassigned) [Example 960, 3-(3-(3-(4-ethoxyphenyl)ureido)-4-(isobutyl(tetrahydro-2H-pyran-4-yl)amino)phenyl)butanoic acid], the IC50 was under 50 nM.
`CCC(CC(=O)O)c1ccc(N2CCOC[C@H]2C(C)C)c(Nc2ccc(C#N)cc2)c1` (single isomer, unassigned) [Example 899] showed an IC50 of under 5 nM.
Work on `CC[C@H](CC(=O)O)c1ccc(N(CC)C2CCOCC2)c(Nc2cnc(OCC3CC3)nc2)c1` (single isomer, unassigned) [Example 520] yielded an IC50 of under 5 nM.
Work on `CCC(CC(=O)O)c1ccc(N(CC)C2CCCOC2)c(Nc2ccc(C#N)cc2)c1` (single isomer, unassigned) [Example 70, 3-(3-((4-cyanophenyl)amino)-4-(ethyl(tetrahydro-2H-pyran-3-yl)amino)phenyl)pentanoic acid] yielded an IC50 of under 5 nM.
In the case of `CCC(CC(=O)O)c1ccc(N(CC(C)C)C2CCCCC2)c(Nc2ccc(Cl)c(OC(F)F)c2)c1` (single isomer, unassigned) [Example 649], the IC50 is reported as under 50 nM.
Work on `CCOc1ccc(Nc2cc([C@H](CC)CC(=O)O)ccc2N2CCC[C@H]2C(C)(C)O)cc1` (single isomer, unassigned) [Example 816] yielded an IC50 of over 50 nM.
